In US8859463B2, “Method for controlling noxious organisms” (Sumitomo Chemical Company, Limited, priority 2009, dated 2014):

Legend:
Assay type in all cases: in vivo
[1] = test system: Ipomoea hederacea var. integriuscula; experiment: Herbicidal activity, soybean pot test, Example 58; conditions: strobilurin seed treatment none, twelve days after sowing
Description: (§1) In a plastic cup measuring 65 mm in inner diameter and 75 mm in height, 4.8 mg of a pyraclostrobin emulsifiable concentrate (emulsifiable concentrate containing 23.8% pyraclostrobin, manufactured by BASF under the trade name of Comet) and 12 soybean seeds were placed. The pyraclostrobin emulsifiable concentrate was adhered to the soybean seeds by shaking this plastic cup by hand. In the same manner, 13.2 mg of the pyraclostrobin emulsifiable concentrate was adhered to the soybean seeds. In the same manner, 4.8 mg of an azoxystrobin suspension (emulsifiable concentrate containing 22.9% azoxystrobin, manufactured by Syngenta under the trade name of Amistar) was adhered to the soybean seeds. In the same manner, 20.4 mg of an azoxystrobin suspension was adhered to the soybean seeds.
(§2) A water diluted solution of a trifloxystrobin granular wettable powder (2.6%) was prepared by adding 52 mg of a trifloxystrobin granular wettable powder (granular wettable powder containing 50% trifloxystrobin, manufactured by Bayer Crop Science Inc. under the trade name of Flint) to 1 mL of desalted water. 51.6 mg of this water diluted solution and 12 soybean seeds were placed in the plastic cup. The water diluted solution of trifloxystrobin was adhered to the soybean seeds by shaking this plastic cup by hand. In the same manner, 199.2 mg of the water diluted solution of trifloxystrobin was adhered to the soybean seeds.
(§3) A plastic pot measuring 194 mm in inner diameter and 176 mm in height was filled with the soil. In this pot, 2 soybean seeds were sown per 1 pot and 10 seeds of Ipomoea hederacea var. integriuscula and Senna obtusifolia were sown per 1 pot. On the day of sowing of the soybean seeds, after sowing the soybean seed, a flumioxazin granule (granule containing 0.25% flumioxazin, manufactured by Valent USA Corporation under the trade name of BroadStar) was uniformly scattered over a surface of the soil in the amount described in Tables 19 to 21 by hand.
(§4) Twelve days after sowing the seeds of soybean, Ipomoea hederacea var. integriuscula and Senna obtusifolia, herbicidal activity was examined.

Senna obtusifolia = experiment: Herbicidal activity, soybean pot test, Example 58; conditions: strobilurin seed treatment none, twelve days after sowing
Description: as §1, §2, §3, §4

soybean = experiment: Phytotoxicity to soybean, Example 6; conditions: clothianidin none; flumioxazin 25 g/ha; day 11 after sowing
Excerpt: A soil was packed in a 1/5000a Wagner pot. The above soybean seeds were sown in the Wagner pot at a rate of two seeds per pot, and the seeds of Ipomoea hederacea were sown in the pot at a rate of three seeds per pot.
On day 11 after sowing of the seeds of soybean and Ipomoea hederacea, the herbicidal effect and phytotoxicity were examined.

Ipomoea hederacea = experiment: Herbicidal activity, soybean pot test, Example 75; conditions: metalaxyl compound none, flumioxazin 50 g/ha, twelve days after sowing
Description: (§5) In a glass container measuring 60 mm in inner diameter and 20 mm in height, 12 mg of a metalaxyl emulsifiable concentrate (emulsifiable concentrate containing 25% metalaxyl, manufactured by Syngenta under the trade name of Subdue) and 20 soybean seeds were placed. After capping this glass container, the metalaxyl emulsifiable concentrate was adhered to the soybean seeds by shaking the glass container by hand. In the same manner, 47 mg of the metalaxyl emulsifiable concentrate was adhered to the soybean seeds. In the same manner, 9 mg of a metalaxyl-M emulsifiable concentrate (emulsifiable concentrate containing 33.3% metalaxyl-M manufactured by Syngeta under the trade name of Apron XL) was adhered to the soybean seeds. In the same manner, 40 mg of the metalaxyl-M emulsifiable concentrate was adhered to the soybean seeds.
(§6) A plastic pot measuring 194 mm in inner diameter and 176 mm in height was filled with the soil. In this pot, 2 soybean seeds were sown per 1 pot, 7 seeds of Ipomoea hederacea were sown per 1 pot, and 10 seeds of Digitaria ciliaris were sown per 1 pot. […]

Digitaria ciliaris = experiment: Herbicidal activity, soybean pot test, Example 75; conditions: metalaxyl compound none, flumioxazin 50 g/ha, twelve days after sowing
Description: as §5, §6

For C#CCN1C(=O)COc2cc(F)c(N3C(=O)C4=C(CCCC4)C3=O)cc21 [Flumioxazin, flumioxazin], the “Herbicidal activity Ipomoea hederacea var. integriuscula” value ([1]; flumioxazin 25 g/ha) was 25, the “Herbicidal activity Ipomoea hederacea var. integriuscula” value ([1]; flumioxazin 100 g/ha) was 85 and the “Herbicidal activity Senna obtusifolia” value (Senna obtusifolia; flumioxazin 25 g/ha) was 20. For the same molecule, the “Herbicidal activity Senna obtusifolia” value (Senna obtusifolia; flumioxazin 100 g/ha) was 45, the “Phytotoxicity to Soybean” value (soybean) was “No harm” and the “Herbicidal activity Ipomoea hederacea” value (Ipomoea hederacea) was 55. The “Herbicidal activity Digitaria ciliaris” value (Digitaria ciliaris) was 75.
